Assay results from patent US20220226281A1, “COMPOUNDS FOR USE IN ANTI-CANCER IMMUNOTHERAPY” (priority 2019, published 2022).

Tested on: splenocytes from LCMV-CL13 infected IFN-γ-YFP mice
Assay type: cell-based

| SMILES | Mean Z-score at 1 μM (reversal of T-cell exhaustion) |
| --- | --- |
| O=S(=O)(NCCCCCCc1ccccc1)c1cccc2c(Cl)cccc12 [5-chloro-N-(6-phenylhexyl)naphthalene-1-sulfonamide] | 11.1 |
| CCCCCCCCCCCCCC(=O)O[C@@H]1[C@@H](C)[C@@]2(O)C(C=C(CO)C[C@]3(O)C(=O)C(C)=C[C@@H]23)[C@@H]2C(C)(C)[C@]12OC(C)=O (some centres unmarked) [12-O-tetradecanoylphorbol-13-acetate] | 17.8 |
| C/C=C(/C)C(=O)O[C@H]1C(C)=C[C@]23C(=O)[C@@H](C=C(CO)[C@@H](O)[C@]12O)[C@H]1[C@@H](C[C@H]3C)C1(C)C [Ingenol-3-angelate] | 30.9 |
| CC1=C[C@]23C(=O)[C@@H](C=C(CO)[C@@H](O)[C@]2(O)[C@H]1O)[C@H]1[C@@H](C[C@H]3C)C1(C)C [Ingenol] | 0.6 |
| CO[C@@H](CC[C@H](C)[C@H]1O[C@@]23C[C@H](OC(=O)C2=C(O)[C@H](C)CC3(C)C)[C@@H]1C)c1cccc(O)c1 [Neo-debromoaplysiatoxin B] | 3.6 |
| CC(=O)O[C@@]12[C@H](O)[C@@H](C)[C@@]3(O)C(C=C(CO)C[C@]4(O)C(=O)C(C)=C[C@@H]34)[C@@H]1C2(C)C (some centres unmarked) [Phorbol-13-acetate] | 0.9 |
| CC(C)[C@H]1C(=O)N[C@H](CO)Cc2cc(NC(=O)/C=C/C=C/c3ccc(C(F)(F)F)cc3)ccc2N1C [TPPB] | 4.6 |
| CC(=O)O[C@@]12C[C@@H](C)[C@@]3(O)[C@@H](C=C(CO)C[C@]4(O)C(=O)C(C)=C[C@@H]34)[C@@H]1C2(C)C [prostratin] | 48.9 |
